Reference: US6156700A, “3-(1,2-Benzisothiazol- and isoxazol-5-yl)-2,4(1H,3H)-pyrimidinedione or thione and 3-(1,2-benzisothiazol- and isoxazol-5-yl)-4(3H)-pyrimidinone or thione herbicidal agents” (American Cyanmid Company, priority 1998, dated 2000)

Experiments:
[1] = tested on: Ragweed, Common, Ambrosia artemisifolia; test: Preemergence herbicidal evaluation, AMBEL; assay type: in vivo, L.; settings: 0.2500 kg/ha
From the text: (§1) Results of herbicide evaluation are expressed on a rating scale (0-9). The scale is based upon a visual observation of plant stand, vigor, malformation, size, chlorosis and overall plant appearance as compared with a control.
(§2) The preemergence herbicidal activity of the test compounds of the present invention is exemplified by the following tests in which the seeds of a variety of monocotyledonous and dicotyledonous plants are separately mixed with potting soil and planted on top of approximately one inch of soil in separate pint cups. After planting, the cups are sprayed with the selected aqueous acetone solution containing test compound in sufficient quantity to provide the equivalent of about 0.0156 to 0.500 kg per hectare of test compound per cup. The treated cups are then placed on greenhouse benches, watered and cared for in accordance with conventional greenhouse procedures. From four to five weeks after treatment, the tests are terminated and each cup is examined and rated according to the rating system provided in Example 185.
(§3) The compounds evaluated are reported by compound number given in Example 185.

[2] = tested on: Lambsquarters, Common, Chenopodium album; test: Postemergence herbicidal evaluation, CHEAL; assay type: in vivo, L.; settings: 0.0630 kg/ha
Procedure, shortened: (§4)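 Rates of about 0.0157–0.500 kg/ha were delivered through a 40 psi spray nozzle to seedlings grown around two weeks, using a 50/50 acetone/water vehicle with 0.5% TWEEN 20. A 0–9 visual score versus control followed 4–5 weeks later.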

[3] = tested on: Foxtail, Green, Setaria viridis; test: Preemergence herbicidal evaluation, SETVI; assay type: in vivo, (L.) Beau; settings: 0.2500 kg/ha
From the text: as §1, §2, §3

[4] = tested on: Wheat, Winter, cv Riband, Triticum aestivum; test: Preemergence herbicidal evaluation, TRZAWR; assay type: in vivo; settings: 0.2500 kg/ha
From the text: as §1, §2, §3

[5] = tested on: Foxtail, Green, Setaria viridis; test: Postemergence herbicidal evaluation, SETVI; assay type: in vivo, (L.) Beau; settings: 0.0630 kg/ha
Procedure, shortened: as §4

[6] = tested on: Barnyardgrass, Echinochloa crus-galli; test: Preemergence herbicidal evaluation, ECHCG; assay type: in vivo, (L.) Beau; settings: 0.2500 kg/ha
From the text: as §1, §2, §3

[7] = tested on: Soybean, Williams, Glycine max; test: Postemergence herbicidal evaluation, GLXMAW; assay type: in vivo, (L.) Merr. cv Williams; settings: 0.0630 kg/ha
Procedure, shortened: as §4

[8] = tested on: Rice, Tebonnet, Oryza sativa; test: Postemergence herbicidal evaluation, ORYSAT; assay type: in vivo, (L.) Tebonnet; settings: 0.0630 kg/ha
Procedure, shortened: as §4

[9] = tested on: Galium, Galium aparine; test: Postemergence herbicidal evaluation, GALAP; assay type: in vivo; settings: 0.0630 kg/ha
Procedure, shortened: as §4

[10] = tested on: Rice, Tebonnet, Oryza sativa; test: Preemergence herbicidal evaluation, ORYSAT; assay type: in vivo, (L.) Tebonnet; settings: 0.2500 kg/ha
From the text: as §1, §2, §3

[11] = tested on: Lambsquarters, Common, Chenopodium album; test: Preemergence herbicidal evaluation, CHEAL; assay type: in vivo, L.; settings: 0.2500 kg/ha
From the text: as §1, §2, §3

[12] = tested on: Sicklepod, Cassia obtusifolia; test: Preemergence herbicidal evaluation, CASOB; assay type: in vivo, L.; settings: 0.2500 kg/ha
From the text: as §1, §2, §3

[13] = tested on: Galium, Galium aparine; test: Preemergence herbicidal evaluation, GALAP; assay type: in vivo; settings: 0.2500 kg/ha
From the text: as §1, §2, §3

[14] = tested on: Morningglory, Ivyleaf, Ipomoea hederacea; test: Preemergence herbicidal evaluation, IPOHE; assay type: in vivo, (L.) Jacq.; settings: 0.2500 kg/ha
From the text: as §1, §2, §3

[15] = tested on: Velvetleaf, Abutilon theophrasti; test: Preemergence herbicidal evaluation, ABUTH; assay type: in vivo, Medic.; settings: 0.2500 kg/ha
From the text: as §1, §2, §3

[16] = tested on: Sicklepod, Cassia obtusifolia; test: Postemergence herbicidal evaluation, CASOB; assay type: in vivo, L.; settings: 0.0630 kg/ha
Procedure, shortened: as §4

[17] = tested on: Wheat, Winter, cv Riband, Triticum aestivum; test: Postemergence herbicidal evaluation, TRZAWR; assay type: in vivo; settings: 0.0630 kg/ha
Procedure, shortened: as §4

[18] = tested on: Corn, Field, Zea mays; test: Postemergence herbicidal evaluation, ZEAMX; assay type: in vivo, L.; settings: 0.0630 kg/ha
Procedure, shortened: as §4

[19] = tested on: Soybean, Williams, Glycine max; test: Preemergence herbicidal evaluation, GLXMAW; assay type: in vivo, (L.) Merr. cv Williams; settings: 0.2500 kg/ha
From the text: as §1, §2, §3

[20] = tested on: Morningglory, Ivyleaf, Ipomoea hederacea; test: Postemergence herbicidal evaluation, IPOHE; assay type: in vivo, (L.) Jacq.; settings: 0.0630 kg/ha
Procedure, shortened: as §4

[21] = tested on: Corn, Field, Zea mays; test: Preemergence herbicidal evaluation, ZEAMX; assay type: in vivo, L.; settings: 0.2500 kg/ha
From the text: as §1, §2, §3

[22] = tested on: Barnyardgrass, Echinochloa crus-galli; test: Postemergence herbicidal evaluation, ECHCG; assay type: in vivo, (L.) Beau; settings: 0.0630 kg/ha
Procedure, shortened: as §4

[23] = tested on: Velvetleaf, Abutilon theophrasti; test: Postemergence herbicidal evaluation, ABUTH; assay type: in vivo, Medic.; settings: 0.0630 kg/ha
Procedure, shortened: as §4

[24] = tested on: Ragweed, Common, Ambrosia artemisifolia; test: Postemergence herbicidal evaluation, AMBEL; assay type: in vivo, L.; settings: 0.0630 kg/ha
Procedure, shortened: as §4

[25] = tested on: ORYSAT; test: Preemergence herbicidal evaluation; assay type: in vivo, Oryza sativa; design: scale not given here
Description: (§5) The preemergence and postemergence herbicidal properties of certain compounds of the present invention are compared with certain compounds disclosed in U.S. Pat. Nos. 5,484,763 and 5,523,278. The evaluations are performed as described in Examples 185 and 186. Data in Tables V and VI are reported by the compound number given in Example 185 for the compounds of this invention or by comparative compound letter for the compounds disclosed in U.S. Pat. Nos. 5,484,763 and 5,523,278.

[26] = tested on: GLXMAW; test: Preemergence herbicidal evaluation; assay type: in vivo; design: scale not given here
Description: as §5

[27] = tested on: CHEAL; test: Preemergence herbicidal evaluation; assay type: in vivo; design: scale not given here
Description: as §5

[28] = tested on: AMBEL; test: Preemergence herbicidal evaluation; assay type: in vivo; design: scale not given here
Description: as §5

[29] = tested on: SETVI; test: Preemergence herbicidal evaluation; assay type: in vivo; design: scale not given here
Description: as §5

[30] = tested on: GALAP; test: Preemergence herbicidal evaluation; assay type: in vivo; design: scale not given here
Description: as §5

[31] = tested on: CASOB; test: Preemergence herbicidal evaluation; assay type: in vivo; design: scale not given here
Description: as §5

[32] = tested on: TRZAWR; test: Preemergence herbicidal evaluation; assay type: in vivo; design: scale not given here
Description: as §5

[33] = tested on: ZEAMX; test: Preemergence herbicidal evaluation; assay type: in vivo; design: scale not given here
Description: as §5

[34] = tested on: ECHCG; test: Preemergence herbicidal evaluation; assay type: in vivo; design: scale not given here
Description: as §5

[35] = tested on: ABUTH; test: Preemergence herbicidal evaluation; assay type: in vivo; design: scale not given here
Description: as §5

[36] = tested on: IPOHE; test: Preemergence herbicidal evaluation; assay type: in vivo
Description: as §5

COC(=O)C(C)Oc1ccc(C(C)C)cc1-c1nsc2ccc(-n3c(=O)cc(C(F)(F)F)n(C)c3=O)cc12 (stereo not drawn) [Compound 30, Methyl 2-{2-{5-[3,6-dihydro-3-methyl-4-(trifluoromethyl)-2,6-dioxo-1(2H)-pyrimidinyl]-1,2-benzisothiazol-3-yl}-4-isopropylphenoxy}propionate]
herbicide rating (0-9) [1]: 9.0 | herbicide rating (0-9) [2]: 9.0 | herbicide rating (0-9) [3]: 9.0 | herbicide rating (0-9) [4]: 7.0 | herbicide rating (0-9) [5]: 9.0 | herbicide rating (0-9) [6]: 7.0 | herbicide rating (0-9) [7]: 7.0 | herbicide rating (0-9) [8]: 7.5 | herbicide rating (0-9) [9]: 5.0 | herbicide rating (0-9) [10]: 6.0 | herbicide rating (0-9) [11]: 9.0 | herbicide rating (0-9) [12]: 9.0 | herbicide rating (0-9) [13]: 7.0 | herbicide rating (0-9) [14]: 9.0 | herbicide rating (0-9) [15]: 9.0 | herbicide rating (0-9) [16]: 9.0 | herbicide rating (0-9) [17]: 7.5 | herbicide rating (0-9) [18]: 9.0 | herbicide rating (0-9) [19]: 6.0 | herbicide rating (0-9) [20]: 9.0 | herbicide rating (0-9) [21]: 7.0 | herbicide rating (0-9) [22]: 9.0 | herbicide rating (0-9) [23]: 9.0 | herbicide rating (0-9) [24]: 9.0

CN(C)C(=O)c1nsc2ccc(-n3c(=O)cc(C(F)(F)F)n(C)c3=O)cc12 [Compound 329, 1,2-Benzisothiazole-3-carboxamide,5-[3,6-dihydro-3-methyl-2,6-dioxo-4-(trifluoromethyl)-1(2H)-pyrimidinyl]-N,N-dimethyl-]
herbicidal effect rating ([25]; 0.0156-0.0160 kg/ha): 1.5 | herbicidal effect rating ([25]; 0.0313-0.0320 kg/ha): 2.5 | herbicidal effect rating ([25]; 0.0620-0.0630 kg/ha): 5.0 | herbicidal effect rating ([25]; 0.1250 kg/ha): 6.5 | herbicidal effect rating ([25]; 0.2500 kg/ha): 8.0 | herbicidal effect rating ([26]; 0.0156-0.0160 kg/ha): 5.0 | herbicidal effect rating ([26]; 0.0313-0.0320 kg/ha): 6.0 | herbicidal effect rating ([26]; 0.0620-0.0630 kg/ha): 7.5 | herbicidal effect rating ([26]; 0.1250 kg/ha): 9.0 | herbicidal effect rating ([26]; 0.2500 kg/ha): 8.0 | herbicidal effect rating ([27]; 0.0156-0.0160 kg/ha): 9.0 | herbicidal effect rating ([27]; 0.0313-0.0320 kg/ha): 9.0 | herbicidal effect rating ([27]; 0.0620-0.0630 kg/ha): 9.0 | herbicidal effect rating ([27]; 0.1250 kg/ha): 9.0 | herbicidal effect rating ([27]; 0.2500 kg/ha): 9.0 | herbicidal effect rating ([28]; 0.0156-0.0160 kg/ha): 3.0 | herbicidal effect rating ([28]; 0.0313-0.0320 kg/ha): 7.0 | herbicidal effect rating ([28]; 0.0620-0.0630 kg/ha): 8.0 | herbicidal effect rating ([28]; 0.1250 kg/ha): 9.0 | herbicidal effect rating ([28]; 0.2500 kg/ha): 9.0 | herbicidal effect rating ([29]; 0.0156-0.0160 kg/ha): 1.5 | herbicidal effect rating ([29]; 0.0313-0.0320 kg/ha): 2.5 | herbicidal effect rating ([29]; 0.0620-0.0630 kg/ha): 9.0 | herbicidal effect rating ([29]; 0.1250 kg/ha): 9.0 | herbicidal effect rating ([29]; 0.2500 kg/ha): 9.0 | herbicidal effect rating ([30]; 0.0156-0.0160 kg/ha): 1.0 | herbicidal effect rating ([30]; 0.0313-0.0320 kg/ha): 1.0 | herbicidal effect rating ([30]; 0.0620-0.0630 kg/ha): 6.0 | herbicidal effect rating ([30]; 0.1250 kg/ha): 9.0 | herbicidal effect rating ([30]; 0.2500 kg/ha): 9.0 | herbicidal effect rating ([31]; 0.0156-0.0160 kg/ha): 0.5 | herbicidal effect rating ([31]; 0.0313-0.0320 kg/ha): 2.0 | herbicidal effect rating ([31]; 0.0620-0.0630 kg/ha): 7.0 | herbicidal effect rating ([31]; 0.1250 kg/ha): 9.0 | herbicidal effect rating ([31]; 0.2500 kg/ha): 8.5 | herbicidal effect rating ([32]; 0.0156-0.0160 kg/ha): 1.0 | herbicidal effect rating ([32]; 0.0313-0.0320 kg/ha): 2.0 | herbicidal effect rating ([32]; 0.0620-0.0630 kg/ha): 4.0 | herbicidal effect rating ([32]; 0.1250 kg/ha): 6.0 | herbicidal effect rating ([32]; 0.2500 kg/ha): 7.0 | herbicidal effect rating ([33]; 0.0156-0.0160 kg/ha): 1.5 | herbicidal effect rating ([33]; 0.0313-0.0320 kg/ha): 2.5 | herbicidal effect rating ([33]; 0.0620-0.0630 kg/ha): 6.5 | herbicidal effect rating ([33]; 0.1250 kg/ha): 7.0 | herbicidal effect rating ([33]; 0.2500 kg/ha): 7.5 | herbicidal effect rating ([34]; 0.0156-0.0160 kg/ha): 0.0 | herbicidal effect rating ([34]; 0.0313-0.0320 kg/ha): 1.0 | herbicidal effect rating ([34]; 0.0620-0.0630 kg/ha): 4.5 | herbicidal effect rating ([34]; 0.1250 kg/ha): 7.0 | herbicidal effect rating ([34]; 0.2500 kg/ha): 9.0 | herbicidal effect rating ([35]; 0.0156-0.0160 kg/ha): 9.0 | herbicidal effect rating ([35]; 0.0313-0.0320 kg/ha): 9.0 | herbicidal effect rating ([35]; 0.0620-0.0630 kg/ha): 9.0 | herbicidal effect rating ([35]; 0.1250 kg/ha): 9.0 | herbicidal effect rating ([35]; 0.2500 kg/ha): 9.0 | herbicidal effect rating ([36]; 0.0156-0.0160 kg/ha): 2.5 | herbicidal effect rating ([36]; 0.0313-0.0320 kg/ha): 4.0 | herbicidal effect rating ([36]; 0.0620-0.0630 kg/ha): 8.0 | herbicidal effect rating ([36]; 0.1250 kg/ha): 9.0 | herbicidal effect rating ([36]; 0.2500 kg/ha): 9.0
